From patent publication US20230107216A1, “PANTETHEINE DERIVATIVES AND USES THEREOF” (Comet Therapeutics, Inc., priority 2018, published 2023)

Assays:
[1] = test system: tyrosine hydroxylase positive mesencephalic neurons injured by MPP+; experiment: Neuroprotective effect on damage induced by MPP+ on culture of mesencephalic neurons; assay type: cell-based; conditions: Rattus norvegicus, Neuron, MPP+ 50 μM, 48h, read-out: % reversion of TH positive neurons (MPTP-mediated degradation of dopaminergic neurons)
Excerpt: A female Wistar rat (Janvier; France) of 15 days gestation was terminated by cervical dislocation, the fetuses were removed from the uterus and their brains were harvested and placed in ice-cold medium (Leibovitz's L15 medium, Gibco). Only ventral mesencephalic flexure was used for the cell preparations. The midbrain was dissociated by trypsinization. The reaction was stopped, and the suspension was triturated and centrifuged. The pellet of dissociated cells was resuspended in chemically defined medium consisted of Neurobasal (Gibco), containing B27 supplement (Gibco) and L-glutamine (Gibco), 10 ng/ml (BDNF; Pepro Tech, France) and 1 ng/ml (GDNF; Pepro Tech).
Viable primary rat embryo mesencephalic cells were counted and seeded on 96-multi-wells plate precoated with poly-L-lysine. Cells were maintained in a humidified incubator at 37° C. in 5% CO2-95% air atmosphere and medium changed on day 2. On day 6, the culture medium was removed and replaced by new media without neurotrophic factors containing the compounds of the present disclosure (50-10 μM) or vehicle (0.1% DMSO). After 1h exposure, injury of mesencephalon neuronal cultures was induced by MPP^+ (50 μM) for further 48h. A mixture of the growth factors GDNF (1 ng/ml) and BDNF (10 ng/ml) were used as reference compound. On day 8, the tyrosine hydroxylase positive neurons were evaluated. Cultures were fixed 30 min at 4° C. with paraformaldehyde in PBS (4%, Thermo Scientific, 28908). After, cells were permeabilized with 0.1% Triton X100 for 30 min, saturated with PBS containing 3% of BSA (bovine serum albumin) and incubated 2h with anti-tyrosine hydroxylase antibody (Sigma, 1:10000; clone TH-2) at 1/10000 in PBS containing 0.5% of BSA. Cells were washed three times with PBS containing 0.5% of BSA and incubated 1h with goat anti mouse antibody coupled with AF488 (Invitrogen A11001) diluted at 1/1000 in PBS containing 0.5% of BSA. Finally, nuclei were stained with DAPI at 1/1000 in PBS containing 0.5% of BSA. After rinsing with PBS, the plate was visualized and examined with Cell Insight HCS (Thermo Scientific) to determine the number of tyrosine hydroxylase positive cells per well.
The results for each well were expressed as a percentage by setting the density of tyrosine hydroxylase positive cells under control conditions to 100%. Then the result for each condition was reported as mean±SEM from 4 independent cultures.
A global analysis of the data was performed using a one-way analysis of variance (ANOVA), followed by Fisher's Protected Least Significant Difference when applicable. The level of significance was set to p<0.05.

[2] = test system: Methylmalonic Acidemia (MMA) primary fibroblasts GM01673; experiment: Mitochondrial respiration, XFe96 Extracellular Flux Analyzer (OCR/ECAR), MMA fibroblasts GM01673; assay type: cell-based; conditions: Homo sapiens, Fibroblast
In short: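 Primary fibroblasts (20000 cells/well) were held 24 h in supplemented DMEM before Seahorse OCR/ECAR profiling. Compounds at 10 to 50 μM or 0.1% DMSO were injected after baseline, then oligomycin 1 μg/ml, FCCP, and rotenone/antimycin A 0.5 μM. Values were normalized to Hoechst nuclear counts, baselined to pre-compound, and expressed relative to vehicle.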

| Structure (SMILES) | inhibition at 10 µM [1] | activation at 10 µM ([2]; assay condition D (1 mM glucose, 10% FBS), 10 μM, read-out: Increase in Maximal Respiratory Capacity AUC) | activation at 50 µM ([2]; assay condition A (10 mM glucose, 2 mM L-glutamine, 1 mM pyruvate, 10% FBS), 50 μM, read-out: Increase in Spare Capacity AUC) |
| --- | --- | --- | --- |
| C[C@@H](O)CC(=O)SCCNC(=O)CCNC(=O)[C@H](O)C(C)(C)CO [Compound 38, S-2-{3-[(R)-2,4-dihydroxy-3,3-dimethylbutyrylamino]propionylamino} ethyl (R)-3-hydroxybutanethioate] | ≥ 60% |  |  |
| CC(C)(COC(=O)OCC[N+](C)(C)C)[C@@H](O)C(=O)NCCC(=O)NCCSC(=O)CCC(=O)O [Compound 116, [2-([[(3R)-3-[[2-([2-[(3-carboxypropanoyl)sulfanyl]ethyl]carbamoyl)ethyl]carbamoyl]-3-hydroxy-2,2-dimethylpropoxy]carbonyl]oxy)ethyl]trimethylazanium] | ≥ 30% |  |  |
| CC(C)(CO)[C@@H](O)C(=O)NCCC(=O)NCCSC(=O)CCC(=O)O [Compound 1, (R)-4-((2-(3-(2,4-dihydroxy-3,3-dimethylbutanamido)propanamido)ethyl)thio)-4-oxobutanoic acid] | ≥ 30% |  |  |
| CC(C)(CO)[C@@H](O)C(=O)NCCC(=O)NCCSC(=O)[C@@H](N)Cc1ccc(O)c(O)c1 [Compound 371, (2R)—N-[2-[(2-[[(2S)-2-amino-3-(3,4-dihydroxyphenyl)propanoyl]sulfanyl]ethyl)carbamoyl]ethyl]-2,4-dihydroxy-3,3-dimethylbutanamide] | ≥ 60% | ≥ 10% |  |
| C[C@@H](O)CC(=O)CC(=O)SCCNC(=O)CCNC(=O)[C@H](O)C(C)(C)CO [Compound 42, (2R)-2,4-dihydroxy-N-[2-[(2-[[(5R)-5-hydroxy-3-oxohexanoyl]sulfanyl]ethyl)carbamoyl]ethyl]-3,3-dimethylbutanamide] | ≥ 60% |  |  |
| CC(=O)SCCNC(=O)CCNC(=O)[C@H](O)C(C)(C)COC(=O)CN [Compound 560, (3R)-3-[(2-[[2-(acetylsulfanyl)ethyl]carbamoyl]ethyl)carbamoyl]-3-hydroxy-2,2-dimethylpropyl 2-aminoacetate] | ≥ 30% |  |  |
| COC(=O)CC(C(C)=O)C(=O)SCCNC(=O)CCNC(=O)[C@H](O)C(C)(C)CO (some centres unmarked) [Compound 410] | ≥ 60% |  | ≥ 10% |
| CC(=O)SCCNC(=O)CCNC(=O)[C@H](O)C(C)(C)COC(=O)[C@@H](N)Cc1ccc(O)c(O)c1 [Compound 498, (3R)-3-[(2-[[2-(acetylsulfanyl)ethyl]carbamoyl]ethyl)carbamoyl]-3-hydroxy-2,2-dimethylpropyl (2S)-2-amino-3-(3,4-dihydroxyphenyl)propanoate] | ≥ 60% |  |  |
| CC(=O)OCC(C)(C)[C@@H](O)C(=O)NCCC(=O)NCCSC(=O)CC(=O)CCC(=O)O [Compound 140, 6-[(2-[3-[(2R)-4-(acetyloxy)-2-hydroxy-3,3-dimethylbutanamido]propanamido]ethyl)sulfanyl]-4,6-dioxohexanoic acid] | ≥ 60% |  |  |
